Converted amounts (≈) assume the structure as drawn.
Legend:
Format in all cases: cell-based
[1] = system: E. coli strain MP-4; experiment: Broth dilution MIC determination (CLSI) against E. coli strain MP-4; conditions: Escherichia coli, MP4
How it was run: (§1)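 MICs of the macrolides were determined by standard CLSI broth dilution. Values are binned: +++ for ≤4 mg/L, ++ for ≥8 and <32 mg/L, + for ≥32 mg/L.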

[2] = system: K. pneumoniae strain MP-548; experiment: Broth dilution MIC determination (CLSI) against K. pneumoniae strain MP-548; conditions: Klebsiella pneumoniae, MP548
How it was run: as §1

[3] = system: P. aeruginosa strain MP-3; experiment: Broth dilution MIC determination (CLSI) against P. aeruginosa strain MP-3; conditions: Pseudomonas aeruginosa, MP3
How it was run: as §1

[4] = system: A. baumannii strain MP-15; experiment: Broth dilution MIC determination (CLSI) against A. baumannii strain MP-15; conditions: Acinetobacter baumannii, MP15
How it was run: as §1

[5] = system: S. aureus strain MP-12; experiment: Broth dilution MIC determination (CLSI) against S. aureus strain MP-12; conditions: Staphylococcus aureus, MP12, strain MP-12
How it was run: as §1

| SMILES | MIC [1] [µg/mL] | MIC [2] [µg/mL] | MIC [3] [µg/mL] | MIC [4] [µg/mL] | MIC [5] [µg/mL] |
| --- | --- | --- | --- | --- | --- |
| CC[C@H]1OC(=O)C(C)C(=O)[C@H](C)[C@@H](O[C@@H]2O[C@H](C(C)N)CC(N(C)C)[C@H]2O)[C@](C)(OC)C[C@@H](C)CN[C@H](C)[C@H]2NC(=O)O[C@@]21C (some centres unmarked) [Compound 181, 3-Desdadinosyl-3-oxo-6-O-methyl-N9a-desmethyl-11,12-dideoxy-12,11-(oxycarbonylimino)-6′-aminoethyl Azithromycin] | 8 to 32 (≈ 12.4 to 49.8 µM) | ≥ 32 | ≥ 32 | ≥ 32 | ≥ 32 |
| CC[C@H]1OC(=O)[C@@]2(C)CCO[C@](C)(C[C@@H](C)CN[C@H](C)[C@H]3NC(=O)O[C@@]31C)[C@H](O[C@@H]1O[C@H](CO)C[C@H](N(C)C)[C@H]1O)[C@@H](C)C2=O [Compound 195] | ≥ 32 | ≥ 32 | ≥ 32 | ≥ 32 | ≥ 32 |
| C=CC1CO[C@@]2(C)C[C@@H](C)CN[C@H](C)[C@H]3NC(=O)O[C@]3(C)[C@@H](CC)OC(=O)[C@@]1(C)C(=O)[C@H](C)[C@H]2OC1OC(C)CC(N(C)C)C1O (some centres unmarked) [Compound 224] | ≥ 32 | ≥ 32 | ≥ 32 | ≥ 32 | ≥ 32 |
| CC[C@H]1OC(=O)C(C)C(=O)[C@H](C)[C@@H](O[C@@H]2O[C@H](CNC(C)C)CC(N(C)C)[C@H]2O)[C@](C)(OC)C[C@@H](C)CN(C)[C@H](C)[C@H]2NC(=O)O[C@@]21C (some centres unmarked) [Compound 164, 3-Descladinosyl-3-oxo-6-O-methyl-11,12-dideoxy-12,11-(oxycarbonylimino)-6′-isopropylamino Azithromycin] | ≤ 4 | 8 to 32 (≈ 11.7 to 46.7 µM) | ≥ 32 | ≥ 32 | ≥ 32 |
| CC[C@H]1OC(=O)C(C)C(=O)[C@H](C)[C@@H](OC2OC(CN(C)C(=O)C(C)(C)C)CC(N(C)C)C2O)[C@](C)(OC)C[C@@H](C)CN[C@H](C)[C@H]2NC(=O)O[C@@]21C (some centres unmarked) [Compound 170, 3-Descladinosyl-3-oxo-6-O-methyl-N9a-desmethyl-11,12-dideoxy-12,11-(oxycarbonylimino)-6′-(N-methyl-N-pivaloylamino) Azithromycin] | 8 to 32 (≈ 11 to 44 µM) | ≥ 32 | ≥ 32 | ≥ 32 | ≥ 32 |
| CC[C@H]1OC(=O)[C@@]2(C)CCO[C@](C)(C[C@@H](C)CN[C@H](C)[C@H]3NC(=O)O[C@@]31C)[C@H](O[C@@H]1O[C@H](CNCC3CC3)C[C@H](N(C)C)[C@H]1O)[C@@H](C)C2=O [Compound 197] | ≥ 32 | ≥ 32 | ≥ 32 | ≥ 32 | ≥ 32 |
| CC[C@H]1OC(=O)C(C)C(=O)[C@H](C)[C@@H](O[C@@H]2O[C@H](C(C)N(CC3CC3)CC3CC3)CC(N(C)C)[C@H]2O)[C@](C)(OC)C[C@@H](C)CN[C@H](C)[C@H]2NC(=O)O[C@@]21C (stereo partly drawn) [Compound 177, 3-Descladinosyl-3-oxo-6-O-methyl-N9a-desmethyl-11,12-dideoxy-12,11-(oxycarbonylimino)-6′-((R,S)-(dicyclopropylmethylamino)ethyl) Azithromycin] | 8 to 32 (≈ 10.7 to 42.6 µM) | ≥ 32 | ≥ 32 | ≥ 32 | ≥ 32 |
| CCNC[C@@H]1CC(N(C)C)[C@@H](O)[C@H](O[C@@H]2[C@@H](C)C(=O)C(C)C(=O)O[C@H](CC)[C@@]3(C)OC(=O)N[C@@H]3[C@@H](C)N(C)C[C@H](C)C[C@@]2(C)OC)O1 (some centres unmarked) [Compound 165, 3-Descladinosyl-3-oxo-6-O-methyl-11,12-dideoxy-12,11-(oxycarbonylimino)-6′-ethylamino Azithromycin] | ≤ 4 | 8 to 32 (≈ 11.9 to 47.7 µM) | ≥ 32 | ≥ 32 | ≥ 32 |
| CC[C@H]1OC(=O)C(C)C(=O)[C@H](C)[C@@H](OC2OC(CN(C)C3CC3)CC(N(C)C)C2O)[C@](C)(OC)C[C@@H](C)CN(C)[C@H](C)[C@H]2NC(=O)O[C@@]21C (some centres unmarked) [Compound 157, 3-Descladinosyl-3-oxo-6-O-methyl-11,12-dideoxy-12,11-(oxycarbonylimino)-6′-[N-(methyl)cyclopropylamino]Azithromycin] | ≤ 4 | 8 to 32 (≈ 11.5 to 45.9 µM) | ≥ 32 | 8 to 32 (≈ 11.5 to 45.9 µM) | 8 to 32 (≈ 11.5 to 45.9 µM) |
| CC[C@H]1OC(=O)[C@@]2(C)CCOC(C)(C[C@@H](C)CN(C)[C@H](C)[C@H]3NC(=O)O[C@@]31C)[C@H](O[C@@H]1OC(C)CC(N(C)C)C1O)[C@@H](C)C2=O (some centres unmarked) [Compound 223] | ≤ 4 | ≤ 4 | ≥ 32 | 8 to 32 (≈ 12.5 to 50 µM) | ≤ 4 |
| CC[C@H]1OC(=O)[C@]2(C)CCC(=O)CO[C@](C)(C[C@@H](C)CN[C@H](C)[C@H]3NC(=O)O[C@@]31C)[C@H](OC1OC(C)CC(N(C)C)C1O)[C@@H](C)C2=O (some centres unmarked) [Compound 226] | ≥ 32 | ≥ 32 | ≥ 32 | ≥ 32 | ≥ 32 |
| CC[C@H]1OC(=O)[C@@]2(C)CCO[C@](C)(C[C@@H](C)CN[C@H](C)[C@H]3NC(=O)O[C@@]31C)[C@H](O[C@@H]1O[C@H](CNC3CC3)C[C@H](N(C)C)[C@H]1O)[C@@H](C)C2=O [Compound 202] | ≤ 4 | ≤ 4 | ≥ 32 | 8 to 32 (≈ 11.7 to 47 µM) | ≤ 4 |

Further lines, results first:

| MIC [1] [µg/mL] | MIC [2] [µg/mL] | MIC [3] [µg/mL] | MIC [4] [µg/mL] | MIC [5] [µg/mL] | SMILES |
| --- | --- | --- | --- | --- | --- |
| ≥ 32 | ≥ 32 | ≥ 32 | ≥ 32 | ≥ 32 | CC[C@H]1OC(=O)C(C)C(=O)[C@H](C)[C@@H](OC2OC(CNCCO)CC(N(C)C)C2O)[C@](C)(OC)C[C@@H](C)CN[C@H](C)[C@H]2NC(=O)O[C@@]21C (some centres unmarked) [Compound 115, 3-Descladinosyl-3-oxo-6-O-methyl-N9a-desmethyl-11,12-dideoxy-12,11-(oxycarbonylimino)-6′-(2-hydroxyethylamino) Azithromycin] |
| ≤ 4 | ≥ 32 | ≥ 32 | ≥ 32 | ≥ 32 | CC[C@H]1OC(=O)C(C)C(=O)[C@H](C)[C@@H](O[C@@H]2OC(CNCc3ccc(F)cn3)CC(N(C)C)C2O)[C@](C)(OC)C[C@@H](C)CN[C@H](C)[C@H]2NC(=O)O[C@@]21C (some centres unmarked) [Compound 38] |
| ≤ 4 | ≤ 4 | ≥ 32 | 8 to 32 (≈ 11.7 to 46.9 µM) | ≥ 32 | CC[C@H]1OC(=O)C(C)C(=O)[C@H](C)[C@@H](OC2OC(CN[C@@H]3C[C@H]3C)CC(N(C)C)C2O)[C@](C)(OC)C[C@@H](C)CN[C@H](C)[C@H]2NC(=O)O[C@@]21C (some centres unmarked) [Compound 134, 3-Descladinosyl-3-oxo-6-O-methyl-N9a-desmethyl-11,12-dideoxy-12,11-(oxycarbonylimino)-6′-((1″R,2″R)-2″-methylcyclopropyl)amino Azithromycin] |
| 8 to 32 (≈ 10.8 to 43.2 µM) | ≥ 32 | ≥ 32 | ≥ 32 | ≥ 32 | CCCCCCCCNCC1CC(N(C)C)C(O)[C@H](O[C@@H]2[C@@H](C)C(=O)C(C)C(=O)O[C@H](CC)[C@@]3(C)OC(=O)N[C@@H]3[C@@H](C)NC[C@H](C)C[C@@]2(C)OC)O1 (some centres unmarked) [Compound 54] |
| ≤ 4 | 8 to 32 (≈ 11.9 to 47.7 µM) | ≥ 32 | ≥ 32 | ≥ 32 | CC[C@H]1OC(=O)C(C)C(=O)[C@H](C)[C@@H](OC2OC(CN(C)CC)CC(N(C)C)C2O)[C@](C)(OC)C[C@@H](C)CN[C@H](C)[C@H]2NC(=O)O[C@@]21C (some centres unmarked) [Compound 151, 3-Descladinosyl-3-oxo-6-O-methyl-N9a-desmethyl-11,12-dideoxy-12,11-(oxycarbonylimino)-6′-methylethylamino Azithromycin] |
| 8 to 32 (≈ 11.9 to 47.8 µM) | ≥ 32 | ≥ 32 | 8 to 32 (≈ 11.9 to 47.8 µM) | 8 to 32 (≈ 11.9 to 47.8 µM) | CC[C@H]1OC(=O)C(C)C(=O)[C@H](C)[C@@H](O[C@@H]2O[C@H](CCC(C)C)CC(N(C)C)[C@H]2O)[C@](C)(OC)C[C@@H](C)CN[C@H](C)[C@H]2NC(=O)O[C@@]21C (some centres unmarked) [Compound 183, 3-Descladinosyl-3-oxo-6-O-methyl-N9a-desmethyl-11,12-dideoxy-12,11-(oxycarbonylimino)-6′-isobutyl Azithromycin] |
| ≥ 32 | ≥ 32 | ≥ 32 | ≥ 32 | ≥ 32 | CC[C@H]1OC(=O)C(C)C(=O)[C@H](C)[C@@H](OC2OC(CN(C)C(C)=O)CC(N(C)C)C2O)[C@](C)(OC)C[C@@H](C)CN[C@H](C)[C@H]2NC(=O)O[C@@]21C (some centres unmarked) [Compound 169, 3-Descladinosyl-3-oxo-6-O-methyl-N9a-desmethyl-11,12-dideoxy-12,11-(oxycarbonylimino)-6′-(N-methyl-N-acetylamino) Azithromycin] |
| ≤ 4 | 8 to 32 (≈ 11.3 to 45.3 µM) | ≥ 32 | ≥ 32 | ≥ 32 | CC[C@H]1OC(=O)C(C)C(=O)[C@H](C)[C@@H](O[C@@H]2OC(CNc3ccccn3)CC(N(C)C)C2O)[C@](C)(OC)C[C@@H](C)CN[C@H](C)[C@H]2NC(=O)O[C@@]21C (some centres unmarked) [Compound 51] |
| ≤ 4 | ≥ 32 | ≥ 32 | ≥ 32 | ≥ 32 | CC[C@H]1OC(=O)C(C)C(=O)[C@H](C)[C@@H](O[C@@H]2OC(CNCc3ccccc3F)CC(N(C)C)C2O)[C@](C)(OC)C[C@@H](C)CN[C@H](C)[C@H]2NC(=O)O[C@@]21C (some centres unmarked) [Compound 29] |
| ≤ 4 | ≥ 32 | ≥ 32 | ≥ 32 | ≥ 32 | CC[C@H]1OC(=O)C(C)C(=O)[C@H](C)[C@@H](O[C@@H]2OC(CNCc3ccc(N(C)C)cc3)CC(N(C)C)C2O)[C@](C)(OC)C[C@@H](C)CN[C@H](C)[C@H]2NC(=O)O[C@@]21C (some centres unmarked) [Compound 44] |

Source: patent US11673910B2, “Macrolides with modified desosamine sugars and uses thereof” (Zikani Therapeutics, Inc., priority 2017, dated 2023)
